Laboratory results: publication PMC10599620, “Structure of a diatom photosystem II supercomplex containing a member of Lhcx family and dimeric FCPII” (Science Advances, 2023)

T1: Tp-Lhcf11 (Thalassiosira pseudonana, UniProt B8BVI1)
T1 construct: native; Lhcf6-Lhcf11 heterodimer within purified PSII-FCPII supercomplex; with Fucoxanthin chlorophyll a/c light-harvesting protein Lhcf6
T1 sequence (B8BVI1 31-196): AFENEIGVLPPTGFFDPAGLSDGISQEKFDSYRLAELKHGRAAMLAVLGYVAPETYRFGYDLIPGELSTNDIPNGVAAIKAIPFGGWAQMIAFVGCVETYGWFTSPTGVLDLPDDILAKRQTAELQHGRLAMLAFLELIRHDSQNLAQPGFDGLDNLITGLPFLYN

T2: Tp-Lhcf7 homodimer (Thalassiosira pseudonana, UniProt B8BX93)
T2 construct: native FCPII homodimer (Lhcf7_1, Lhcf7_2) within purified PSII-FCPII supercomplex
T2 sequence (B8BX93 31-194 limits assumed): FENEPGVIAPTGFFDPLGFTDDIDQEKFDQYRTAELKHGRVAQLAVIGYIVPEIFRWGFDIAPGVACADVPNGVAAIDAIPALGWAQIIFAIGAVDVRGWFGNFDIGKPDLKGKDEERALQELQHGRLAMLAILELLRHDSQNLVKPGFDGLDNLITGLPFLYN

T3: Tp-Lhcf7 (Thalassiosira pseudonana)
T3 chain: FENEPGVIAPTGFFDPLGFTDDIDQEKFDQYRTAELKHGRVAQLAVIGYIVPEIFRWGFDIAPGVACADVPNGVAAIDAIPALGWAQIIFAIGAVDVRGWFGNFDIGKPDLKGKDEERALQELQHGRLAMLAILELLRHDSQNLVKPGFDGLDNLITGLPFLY

B1: Tp-Lhcf7 (natural protein)
chain: FENEPGVIAPTGFFDPLGFTDDIDQEKFDQYRTAELKHGRVAQLAVIGYIVPEIFRWGFDIAPGVACADVPNGVAAIDAIPALGWAQIIFAIGAVDVRGWFGNFDIGKPDLKGKDEERALQELQHGRLAMLAILELLRHDSQNLVKPGFDGLDNLITGLPFLY
modifications: binds 12-13 Chl a, 2 fucoxanthins, 2 diadinoxanthins; homodimer in the supercomplex; limits are the residues modelled in 8IWH (Table S4) / binds 12-13 Chl a, 2 fucoxanthins, 2 diadinoxanthins …

What was measured:
Tp-Lhcf11 = target: T1, Tp-Lhcf11; assay: cryo-EM structure of native supercomplex, local map […] A; assay type: binding; conditions: site 305
Tp-Lhcf7 homodimer = target: T2, Tp-Lhcf7 homodimer; assay: cryo-EM structure of native supercomplex, […] A; assay type: binding; conditions: sites 301 and 302
Tp-Lhcf7 = target: T3, Tp-Lhcf7; assay: cryo-EM structure; native PSII-FCPII supercomplex co-purified from T. pseudonana (cells grown under low light), in 50 mM Mes-NaOH pH 6.5, 10 mM NaCl, 5 mM CaCl2, 0.03% alpha-DDM, 2 mg Chl/ml; overall map 2.68 A, local map of the peripheral FCPII 3.19 A; conditions: both partners purified

Molecule	cryo-EM structure of native supercomplex, local map 3.19 A (Tp-Lhcf11)	cryo-EM structure of native supercomplex, 2.68 A (Tp-Lhcf7 homodimer)	stoichiometry N (Tp-Lhcf7)
CC(=O)O[C@H]1CC(C)(C)C(=C=C/C(C)=C/C=C/C(C)=C/C=C/C=C(C)/C=C/C=C(\C)C(=O)C[C@@]23O[C@]2(C)C[C@@H](O)CC3(C)C)[C@](C)(O)C1 [Fx]	two changes of pigment species at Chl c403 and Fx305 sites	There are two Fxs, Fx301 and Fx302, in Tp-Lhcf7	–
B1	–	–	2
